Assay results taken from ChEMBL document CHEMBL1138037, “Novel sst2-selective somatostatin agonists. Three-dimensional consensus structure by NMR” (J Med Chem, 2006).
Positions of bridges follow the written chain, without caps; N, C: chain ends. Non-standard residues stand in square brackets, D forms with d. Residues, ends and D or L forms follow the SMILES beside them.

Key:
[1] = target: Somatostatin receptor type 3 (Homo sapiens, UniProt P32745); assay: Inhibition of [125I](Leu8,DTrp22,Tyr25)-SRIF28 binding to human sst3
Sequence of Somatostatin receptor type 3 (P32745 whole entry): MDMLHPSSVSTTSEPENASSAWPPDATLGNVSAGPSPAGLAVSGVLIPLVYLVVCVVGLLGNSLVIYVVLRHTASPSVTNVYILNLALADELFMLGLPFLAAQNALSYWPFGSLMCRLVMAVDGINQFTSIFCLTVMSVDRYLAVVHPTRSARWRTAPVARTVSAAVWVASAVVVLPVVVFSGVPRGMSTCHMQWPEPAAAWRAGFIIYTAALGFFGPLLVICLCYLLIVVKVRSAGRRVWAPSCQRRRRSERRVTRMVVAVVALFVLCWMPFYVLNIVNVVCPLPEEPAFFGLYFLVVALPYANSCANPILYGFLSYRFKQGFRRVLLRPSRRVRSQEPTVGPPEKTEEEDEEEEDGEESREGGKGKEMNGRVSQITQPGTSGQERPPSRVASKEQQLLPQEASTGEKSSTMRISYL

[2] = target: Somatostatin receptor type 1 (Homo sapiens, UniProt P30872); assay: Inhibition of [125I](Leu8,DTrp22,Tyr25)-SRIF28 binding to human sst1
Sequence of Somatostatin receptor type 1 (P30872 whole entry): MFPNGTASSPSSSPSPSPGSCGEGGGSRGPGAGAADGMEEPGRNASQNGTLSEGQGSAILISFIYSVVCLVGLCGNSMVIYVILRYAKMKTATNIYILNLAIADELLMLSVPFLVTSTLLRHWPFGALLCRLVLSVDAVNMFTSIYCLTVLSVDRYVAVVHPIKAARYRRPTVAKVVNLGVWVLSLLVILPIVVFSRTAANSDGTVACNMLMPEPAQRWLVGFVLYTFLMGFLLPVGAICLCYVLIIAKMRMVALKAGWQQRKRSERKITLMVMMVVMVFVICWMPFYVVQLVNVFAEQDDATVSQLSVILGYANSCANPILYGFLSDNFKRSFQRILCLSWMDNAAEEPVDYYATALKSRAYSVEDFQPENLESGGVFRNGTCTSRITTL

[3] = target: Somatostatin receptor type 2 (Homo sapiens, UniProt P30874); assay: Inhibition of [125I](Leu8,DTrp22,Tyr25)-SRIF28 binding to human sst2
Sequence of Somatostatin receptor type 2 (P30874 whole entry): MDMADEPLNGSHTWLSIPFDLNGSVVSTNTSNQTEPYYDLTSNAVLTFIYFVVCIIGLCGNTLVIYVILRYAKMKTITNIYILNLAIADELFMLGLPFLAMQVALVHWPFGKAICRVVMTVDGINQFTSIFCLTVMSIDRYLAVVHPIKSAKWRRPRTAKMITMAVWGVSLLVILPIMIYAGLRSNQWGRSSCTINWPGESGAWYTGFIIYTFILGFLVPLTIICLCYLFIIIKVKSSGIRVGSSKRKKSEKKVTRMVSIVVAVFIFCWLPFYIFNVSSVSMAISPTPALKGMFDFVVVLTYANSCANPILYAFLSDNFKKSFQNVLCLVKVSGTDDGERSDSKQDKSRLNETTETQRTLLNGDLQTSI

[4] = target: Somatostatin receptor type 5 (Homo sapiens, UniProt P35346); assay: Inhibition of [125I](Leu8,DTrp22,Tyr25)-SRIF28 binding to human sst5
Sequence of Somatostatin receptor type 5 (P35346 whole entry): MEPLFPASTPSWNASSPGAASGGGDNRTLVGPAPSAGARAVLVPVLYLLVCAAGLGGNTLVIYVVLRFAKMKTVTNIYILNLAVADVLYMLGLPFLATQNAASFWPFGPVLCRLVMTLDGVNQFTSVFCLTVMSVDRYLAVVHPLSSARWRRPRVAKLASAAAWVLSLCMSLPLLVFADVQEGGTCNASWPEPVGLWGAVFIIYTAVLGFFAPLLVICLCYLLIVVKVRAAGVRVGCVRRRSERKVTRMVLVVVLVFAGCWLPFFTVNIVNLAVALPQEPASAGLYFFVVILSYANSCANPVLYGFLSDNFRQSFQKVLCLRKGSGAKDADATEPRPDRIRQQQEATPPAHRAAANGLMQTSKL

[5] = target: Somatostatin receptor type 4 (Homo sapiens, UniProt P31391); assay: Inhibition of [125I](Leu8,DTrp22,Tyr25)-SRIF28 binding to human sst4
Sequence of Somatostatin receptor type 4 (P31391 whole entry): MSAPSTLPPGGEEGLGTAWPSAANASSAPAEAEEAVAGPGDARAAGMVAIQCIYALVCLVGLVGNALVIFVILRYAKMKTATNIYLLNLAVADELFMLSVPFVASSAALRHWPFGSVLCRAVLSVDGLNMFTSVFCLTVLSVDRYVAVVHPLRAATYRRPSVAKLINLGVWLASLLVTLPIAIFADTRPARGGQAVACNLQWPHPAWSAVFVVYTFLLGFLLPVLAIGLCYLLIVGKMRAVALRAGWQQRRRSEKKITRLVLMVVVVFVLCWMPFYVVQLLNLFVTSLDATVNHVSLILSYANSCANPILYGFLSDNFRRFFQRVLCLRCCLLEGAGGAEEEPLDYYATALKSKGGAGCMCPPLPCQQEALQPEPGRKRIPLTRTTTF

SMILES | IC50 [1] | IC50 [2] | IC50 [3] | IC50 [4] | IC50 [5]
CONC(=O)Nc1ccc(C[C@@H]2NC(=O)[C@@H](NC(=O)[C@@H](Cc3ccccc3)NC(N)=O)CSSC[C@@H](C(=O)N[C@H](C(N)=O)[C@@H](C)O)NC(=O)[C@H]([C@@H](C)O)NC(=O)[C@H](CCCCN)NC(=O)[C@@H](Cc3c[nH]c4ccccc34)NC2=O)cc1 | 958 nM | > 1000 nM | 3.1 nM | 539 nM | > 1000 nM
C[C@@H](O)[C@H](NC(=O)[C@@H]1CSSC[C@H](NC(=O)[C@@H](Cc2ccccc2)NC(N)=O)C(=O)N[C@@H](Cc2ccc(NC(N)=O)cc2)C(=O)N[C@H](Cc2c[nH]c3ccccc23)C(=O)N[C@@H](CCCCN)C(=O)N[C@@H]([C@@H](C)O)C(=O)N1)C(N)=O | 210 nM | > 1000 nM | 6.2 nM | 77 nM | 
C[C@@H](O)[C@H](NC(=O)[C@@H]1CSSC[C@H](NC(=O)[C@H](Cc2ccccc2)NC(N)=O)C(=O)N[C@@H](Cc2ccc(NC(N)=O)cc2)C(=O)N[C@H](Cc2c[nH]c3ccccc23)C(=O)N[C@@H](CCCCN)C(=O)N[C@@H]([C@@H](C)O)C(=O)N1)C(N)=O | 942 nM | > 1000 nM | 7.5 nM | 109 nM | 
C[C@@H](O)[C@@H]1NC(=O)[C@H](CCCCN)NC(=O)[C@@H](Cc2c[nH]c3ccccc23)NC(=O)[C@H](Cc2ccccc2)NC(=O)[C@@H](N)CSSC[C@@H](C(=O)O)NC1=O (H-CF[dW]KTC-OH; disulfide 1-6) | > 1000 nM | > 1000 nM | 378 nM | > 1000 nM | > 1000 nM
C[C@@H]1NC(=O)[C@@H](NC(=O)[C@H](N)Cc2ccccc2)CSSC[C@@H](C(=O)N[C@H](C(N)=O)[C@@H](C)O)NC(=O)[C@H]([C@@H](C)O)NC(=O)[C@H](CCCCN)NC(=O)[C@@H](Cc2c[nH]c3ccccc23)NC1=O | 543 nM | > 1000 nM | 3.6 nM | 158 nM | > 1000 nM
C[C@@H](O)[C@H](NC(=O)[C@@H]1CSSC[C@H](NC(=O)[C@H](N)Cc2ccccc2)C(=O)N[C@@H](Cc2ccccc2)C(=O)N[C@H](Cc2c[nH]c3ccccc23)C(=O)N[C@@H](CCCCN)C(=O)N[C@@H]([C@@H](C)O)C(=O)N1)C(N)=O | 38 nM | > 1000 nM | 2.2 nM |  | > 10000 nM
